Counter-ions that a name gives are not always drawn.
Tests used:
human-D3R = target: T1, human-D3R (Homo sapiens, UniProt P35462); assay: D3 Dopamine Receptor (D3dR) cellular assay, cAMP HTRF functional assay in human-D3R expressing CHO cells; format: cell-based; conditions: for Emax: CHO, 0.5 h, % of 300 nM Dopamine response, read-out: Dopamine D3 % of Agonist Activity; for EC50: cAMP assay, CHO human-D3R, one experiment in duplicate
T1 construct: expressed in transfected cells; host or cells: CHO cell line stably transfected with human D3R
T1 sequence (P35462 whole entry): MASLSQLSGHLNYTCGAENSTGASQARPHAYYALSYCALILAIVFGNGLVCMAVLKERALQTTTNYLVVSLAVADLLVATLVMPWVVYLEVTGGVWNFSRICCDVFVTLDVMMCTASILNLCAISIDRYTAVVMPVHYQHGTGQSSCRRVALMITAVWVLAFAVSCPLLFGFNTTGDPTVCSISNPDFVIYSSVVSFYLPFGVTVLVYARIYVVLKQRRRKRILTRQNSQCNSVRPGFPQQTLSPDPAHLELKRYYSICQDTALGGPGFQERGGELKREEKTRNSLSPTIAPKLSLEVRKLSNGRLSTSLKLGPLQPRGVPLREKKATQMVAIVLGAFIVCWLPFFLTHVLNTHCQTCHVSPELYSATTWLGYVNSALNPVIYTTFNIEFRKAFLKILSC
Description: D3 Dopamine Receptor (D3dR) Cellular Assay
Activity on D3R was tested with a cAMP functional assay on a stably transfected human-D3R expressing CHO cell line. On the day of the assay performance the cells were washed twice with PBS (w/o calcium and magnesium) and dislodged with a cell scraper, transferred to PBS, centrifuged and re-suspended in HBSS (w/o calcium and magnesium), supplemented with 1 g/L glucose and […] IBMX. The cell suspension was seeded on a 384 well plate (Greiner) and the assay was performed by adding compounds either test compounds alone (for agonist activity), or with test compound after a pre-incubation with 10 nM Dopamine as a stimulant (for antagonistic activity). After incubation (30 min at RT) the cell stimulation was stopped by adding the detecting reagents (cAMP-XL665 and anti-cAMP cryptate) diluted in lysis buffer. The signal was quantified by Homogenous Time-Resolved Fluorescence (HTRF) on a Perkin Elmer Envision plate reader after one hour of incubation at RT.
(§1) EC50 or IC50 values (concentrations causing half-maximal response or inhibition of control agonist response) were determined by non-linear regression analysis of the Log [concentration]/response curves generated with mean replicate values using a four parameter Hill equation curve fitting with GraphPad Prism 5 (GraphPad Software Inc., CA—USA).

human FAAH-1 = target: T2, human FAAH-1 (Homo sapiens, UniProt O00519); assay: Human recombinant Fatty Acid Amide Hydrolase-1 (FAAH-1) fluorescent assay, Hek293-hFAAH-1 membranes; format: biochemical; conditions: 3 separate experiments, each in triplicate
T2 construct: expressed in transfected cells; host or cells: Hek293 cells stably transfected with human FAAH-1; membrane preparation
T2 sequence (O00519 1-579): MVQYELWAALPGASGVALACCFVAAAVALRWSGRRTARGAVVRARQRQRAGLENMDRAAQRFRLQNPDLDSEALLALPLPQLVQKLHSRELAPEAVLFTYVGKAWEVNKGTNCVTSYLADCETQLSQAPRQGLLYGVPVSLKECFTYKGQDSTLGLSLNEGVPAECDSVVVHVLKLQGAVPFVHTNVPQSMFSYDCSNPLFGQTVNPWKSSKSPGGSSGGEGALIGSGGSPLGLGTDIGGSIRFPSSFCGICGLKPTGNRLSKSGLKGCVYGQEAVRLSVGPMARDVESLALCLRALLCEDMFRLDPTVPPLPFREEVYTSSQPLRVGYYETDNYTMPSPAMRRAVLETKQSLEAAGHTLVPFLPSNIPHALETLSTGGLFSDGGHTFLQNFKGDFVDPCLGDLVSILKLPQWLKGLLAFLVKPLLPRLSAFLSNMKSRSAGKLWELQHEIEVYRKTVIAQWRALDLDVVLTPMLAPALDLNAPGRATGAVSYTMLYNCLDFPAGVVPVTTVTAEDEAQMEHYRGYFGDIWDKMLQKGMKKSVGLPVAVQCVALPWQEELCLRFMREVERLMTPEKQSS
Description: Human Recombinant Fatty Acid Amide Hydrolase-1 (FAAH-1) Fluorescent Assay
Hek293 cells stably transfected with human FAAH-1 were maintained in DMEM containing 10% FBS, 1% pen/strep and 500 μg/mL G418 to maintain selective pressure. Cells were scraped off with cold PBS1× pH7.4 from plates and collected by centrifugation (500 g, 10 minutes, 4° C.); cells pellets were re-suspended in homogenizing buffer (20 mM Tris-HCl pH7.4, 0.32M sucrose), disrupted by sonication (10 pulses, 5 times) and centrifuged at 800×g for 15 minutes at 4° C.; the resultant supernatants collected were then centrifuged at 105,000×g for 1 hr at 4° C. and membranes pellets were re-suspended in PBS1× pH7.4.
Protein concentration was measured and samples aliquot stored at −80° C. until use.
The blank (no activity) was prepared using 180 μL of assay buffer without Hek293-hFAAH-1 membrane preparation and 10 μL of DMSO.
After 50 minutes of pre-incubation of compounds with the enzyme at 37° C., the reaction was started by the addition of 10 μL of substrate (AMC Arachidonyl Amide, N.10005098, Cayman Chemical) for 30 min at 37° C. The substrate is prepared in Ethanol in order to achieve the final concentration of 2 μM.
Fluorescence was detected with Tecan Infinite M200 nanoquant (Tecan Group Ltd.) at an excitation wavelength 350 nm and an emission wavelength 460 nm.
as §1

Compound	Emax (human-D3R) [%]	EC50 (human-D3R) [nM]	IC50 (human FAAH-1) [nM]
O=C(NCCCCN1CCN(c2cccc(Cl)c2Cl)CC1)Oc1cccc(N2CCOCC2)c1 [Example 8, (3-morpholinophenyl) N-[4-[4-(2,3-dichlorophenyl)piperazin-1-yl]butyl] carbamate hydrochloride]	83	35	3.4
O=C(NCCCCN1CCN(c2cccc(Cl)c2Cl)CC1)Oc1cccc(N2CCC(F)(F)CC2)c1 [Example 9, [3-(4,4-difluoro-1-piperidinyl)phenyl] N-[4-[4-(2,3-dichlorophenyl)piperazin-1-yl]butyl]carbamate hydrochloride]	54.7	9.2	17
O=C(NCCCCN1CCN(c2cccc(Cl)c2Cl)CC1)Oc1ccc(N2CCC(F)(F)CC2)cc1 [Example 12, [4-(4,4-difluoro-1-piperidinyl)phenyl] N-[4-[4-(2,3-dichlorophenyl)piperazin-1-yl]butyl]carbamate hydrochloride]	90.7	49	9.9
Cc1ccccc1N1CCN(CCCNC(=O)Oc2cccc(N3CCOCC3)c2)CC1 [Example 13, (3-morpholino phenyl) N-[3-[4-(o-tolyl)piperazin-1-yl]propyl]carbamate hydrochloride]	59.4	150	4.4
NC(=O)c1cccc(-c2cccc(OC(=O)NCCCCN3CCC(c4ccccc4)CC3)c2)c1 [Example 14, [3-(3-carbamoylphenyl)phenyl] N-[4-(4-phenyl-1-piperidinyl)butyl]carbamate hydrochloride]	74.3	36	9.6
Cc1ccccc1N1CCN(CCCNC(=O)Oc2ccc(-c3ccccc3)cc2)CC1 [Example 15, (4-phenylphenyl) N-[3-[4-(o-tolyl)piperazin-1-yl]propyl]carbamate]	82	290	4.1
O=C(NCCCN1CCN(c2ccccc2C(F)(F)F)CC1)Oc1ccc(-c2ccccc2)cc1 [Example 16, (4-phenylphenyl) N-[3-[4-[2-(trifluoromethyl)phenyl]piperazin-1-yl]propyl] carbamate]	95.4	300	12
O=C(NCCCN1CCN(c2cccc(Cl)c2Cl)CC1)Oc1ccc2c(c1)[nH]c1ccccc12 [Example 17, 9H-carbazol-2-yl N-[3-[4-(2,3-dichlorophenyl)piperazin-1-yl]propyl]carbamate]	91	150	4.8
O=C(NCCCN1CCN(c2ccccc2C(F)(F)F)CC1)Oc1ccc(N2CCC(F)(F)CC2)cc1 [Example 18, [4-(4,4-difluoro-1-piperidinyl)phenyl] N-[3-[4-[2-(trifluoromethyl)phenyl]piperazin-1-yl]propyl]carbamate hydrochloride]	86	190	28
NC(=O)c1cccc(-c2ccc(OC(=O)NCCCCN3CCN(c4cccc(Cl)c4Cl)CC3)cc2F)c1 [Example 21, [4-(3-carbamoylphenyl)-3-fluoro-phenyl] N-[4-[4-(2,3-dichlorophenyl)piperazin-1-yl]butyl]carbamate]	69.4		0.96
O=C(NCCCCN1CCN(c2cccc(Cl)c2Cl)CC1)Oc1ccc(-c2ccccn2)cc1 [Example 24, [4-(2-pyridyl)phenyl] N-[4-[4-(2,3-dichlorophenyl)piperazin-1-yl]butyl]carbamate]	70.4	5.92	0.21
NC(=O)c1cccc(-c2ccc(OC(=O)NCCCCN3CCN(c4ccccc4)CC3)cc2)c1 [Example 25, [4-(3-carbamoylphenyl)phenyl] N-[4-(4-phenylpiperazin-1-yl)butyl]carbamate]	87.5	3.6	3.5
O=C(NCCCCN1CCN(c2cccc(Cl)c2Cl)CC1)Oc1ccc2c(c1)[nH]c1ccccc12 [Example 28, 9H-carbazol-2-yl N-[4-[4-(2,3-dichlorophenyl)piperazin-1-yl]butyl]carbamate]	89.7	120	8
COc1ccccc1N1CCN(CCCCNC(=O)Oc2ccc3c(c2)[nH]c2ccccc23)CC1 [Example 33, 9H-carbazol-2-yl N-[4-[4-(2-methoxyphenyl)piperazin-1-yl]butyl]carbamate]	65.9	12	37
O=C(NCCC(F)CN1CCN(c2cccc(Cl)c2Cl)CC1)Oc1ccc(-c2ccccc2)cc1 (centres unmarked) [Example 36, (4-phenylphenyl) N-[4-[4-(2,3-dichlorophenyl)piperazin-1-yl]-3-fluoro-butyl] carbamate]	87.6	150	1.3
COc1cc(OC(=O)NCCCN2CCN(c3ccccc3OC)CC2)ccc1-c1ccccc1 [Example 37, (3-methoxy-4-phenyl-phenyl) N-[3-[4-(2-methoxyphenyl)piperazin-1-yl]propyl] carbamate hydrochloride]	73.5	38	7.8
O=C(NCC(CF)N1CCN(c2cccc(Cl)c2Cl)CC1)Oc1ccc(-c2ccccc2)cc1 (centres unmarked) [Example 41, (4-phenylphenyl) N-[2-[4-(2,3-dichlorophenyl)piperazin-1-yl]-3-fluoro-propyl] carbamate hydrochloride]			9.9
COc1ccccc1N1CCN(CCCNC(=O)Oc2ccc(Cc3ccccc3)cc2)CC1 [Example 43, (4-benzylphenyl) N-[3-[4-(2-methoxyphenyl)piperazin-1-yl]propyl]carbamate hydrochloride]			18
COc1ccccc1N1CCN(CCCNC(=O)Oc2ccc(C(=O)c3ccccc3)cc2)CC1 [Example 44, (4-benzoylphenyl) N-[3-[4-(2-methoxyphenyl)piperazin-1-yl]propyl]carbamate hydrochloride]			11
COc1ccccc1N1CCN(CCCCNC(=O)Oc2ccc(C(=O)c3ccccc3)cc2)CC1 [Example 45, (4-benzoylphenyl) N-[4-[4-(2-methoxyphenyl)piperazin-1-yl]butyl]carbamate hydrochloride]	51.4	29	5.3
